# pIC50: −log10 of the molar value.
# System: 755483-174-R-J1-PDC complex spheroid growth, percent test/control
# Experiment: Anticancer human tumor 755483-174-R-J1-PDC patient-derived rhabdomyosarcoma cell line growth inhibition [Asc]
# Details: for pIC50: curve of first compound; for viability, T/C: stronger effect = lower value
# Outline: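 Tumor cells were grown as complex spheroids with human endothelial cells (HUVEC) and human mesenchymal stem cells as stroma. Agents were tested alone and in combination, in half-log steps down from the clinical Cmax, or from 10 microM where Cmax was unknown.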
# [1] = second compound 0.1 µM, first compound 0.00316 µM
# [2] = second compound 0.1 µM, first compound 0.01 µM
# [3] = second compound 0.1 µM, first compound 0.0316 µM
# [4] = second compound 0.1 µM, first compound 0.1 µM
# [5] = second compound 0.1 µM, first compound 0.316 µM
# [6] = second compound 0.1 µM, first compound 1 µM
# [7] = second compound 0.316 µM, first compound 0.00316 µM
# [8] = second compound 0.316 µM, first compound 0.01 µM
# [9] = second compound 0.316 µM, first compound 0.0316 µM
# [10] = second compound 0.316 µM, first compound 0.1 µM
# [11] = second compound 0.316 µM, first compound 0.316 µM
# [12] = second compound 0.316 µM, first compound 1 µM
# [13] = second compound 1 µM, first compound 0.00316 µM
# [14] = second compound 1 µM, first compound 0.01 µM
# [15] = second compound 1 µM, first compound 0.0316 µM
# [16] = second compound 1 µM, first compound 0.1 µM
# [17] = second compound 1 µM, first compound 0.316 µM
# [18] = second compound 1 µM, first compound 1 µM
# [19] = second compound 3.16 µM, first compound 0.00316 µM
# [20] = second compound 3.16 µM, first compound 0.01 µM
# [21] = second compound 3.16 µM, first compound 0.0316 µM
# [22] = second compound 3.16 µM, first compound 0.1 µM
# [23] = second compound 3.16 µM, first compound 0.316 µM
# [24] = second compound 3.16 µM, first compound 1 µM
# [25] = second compound 10 µM, first compound 0.00316 µM
# [26] = second compound 10 µM, first compound 0.01 µM
# [27] = second compound 10 µM, first compound 0.0316 µM
# [28] = second compound 10 µM, first compound 0.1 µM
# [29] = second compound 10 µM, first compound 0.316 µM
# [30] = second compound 10 µM, first compound 1 µM
# 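Also: spheroids exposed to compounds for seven days before readout.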
smiles,measurement,setting,value
CCN1CCN(Cc2ccc(Nc3ncc(F)c(-c4cc(F)c5nc(C)n(C(C)C)c5c4)n3)nc2)CC1 + Cc1c(S(C)(=O)=O)c(-c2cc(F)cc(N3CCN(c4ccc(NS(=O)(=O)c5ccc(NC(CCN6CCC(C(=O)OCCCP(=O)(O)O)CC6)CSc6ccccc6)c(S(=O)(=O)C(F)(F)F)c5)cc4)CC3)c2)c(-c2ccc(Cl)cc2)n1C(C)C,pIC50,second compound 0.1 µM,< 6.00
same,pIC50,second compound 0.316 µM,> 8.50
same,pIC50,second compound 1 µM,> 8.50
same,pIC50,second compound 3.16 µM,> 8.50
same,pIC50,second compound 10 µM,> 8.50
same,"viability, T/C",[1],43%
same,"viability, T/C",[2],62.1%
same,"viability, T/C",[3],59.5%
same,"viability, T/C",[4],68.5%
same,"viability, T/C",[5],103%
same,"viability, T/C",[6],104%
same,"viability, T/C",[7],41%
same,"viability, T/C",[8],48%
same,"viability, T/C",[9],57.9%
same,"viability, T/C",[10],59.3%
same,"viability, T/C",[11],69%
same,"viability, T/C",[12],81.7%
same,"viability, T/C",[13],33.3%
same,"viability, T/C",[14],45.3%
same,"viability, T/C",[15],37.3%
same,"viability, T/C",[16],50.2%
same,"viability, T/C",[17],49.5%
same,"viability, T/C",[18],49.7%
same,"viability, T/C",[19],31.3%
same,"viability, T/C",[20],66%
same,"viability, T/C",[21],36.6%
same,"viability, T/C",[22],45.4%
same,"viability, T/C",[23],40.9%
same,"viability, T/C",[24],58.5%
same,"viability, T/C",[25],52.8%
same,"viability, T/C",[26],41.9%
same,"viability, T/C",[27],55%
same,"viability, T/C",[28],54.4%
same,"viability, T/C",[29],66.9%
same,"viability, T/C",[30],70.9%
COc1c(OCCCN2CCOCC2)ccc2c3n(c(=NC(=O)c4cnc(N)nc4)nc12)CCN3 + Cc1c(S(C)(=O)=O)c(-c2cc(F)cc(N3CCN(c4ccc(NS(=O)(=O)c5ccc(NC(CCN6CCC(C(=O)OCCCP(=O)(O)O)CC6)CSc6ccccc6)c(S(=O)(=O)C(F)(F)F)c5)cc4)CC3)c2)c(-c2ccc(Cl)cc2)n1C(C)C,pIC50,second compound 0.1 µM,> 8.50
same,pIC50,second compound 0.316 µM,> 8.50
same,pIC50,second compound 1 µM,> 8.50
same,pIC50,second compound 3.16 µM,> 8.50
same,pIC50,second compound 10 µM,> 8.50
same,"viability, T/C",[1],39.6%
same,"viability, T/C",[2],48%
same,"viability, T/C",[3],33.2%
same,"viability, T/C",[4],15.8%
same,"viability, T/C",[5],6.56%
same,"viability, T/C",[6],4%
same,"viability, T/C",[7],32.8%
same,"viability, T/C",[8],28.1%
same,"viability, T/C",[9],31.9%
same,"viability, T/C",[10],13%
same,"viability, T/C",[11],5.57%
same,"viability, T/C",[12],2.62%
same,"viability, T/C",[13],34.3%
same,"viability, T/C",[14],31.4%
same,"viability, T/C",[15],18.6%
same,"viability, T/C",[16],17.4%
same,"viability, T/C",[17],5.22%
same,"viability, T/C",[18],2.16%
same,"viability, T/C",[19],26.5%
same,"viability, T/C",[20],29.1%
same,"viability, T/C",[21],20.2%
same,"viability, T/C",[22],8.47%
same,"viability, T/C",[23],5.03%
same,"viability, T/C",[24],1.66%
same,"viability, T/C",[25],40.9%
same,"viability, T/C",[26],25.5%
same,"viability, T/C",[27],19.1%
same,"viability, T/C",[28],12.1%
same,"viability, T/C",[29],4.21%
same,"viability, T/C",[30],1.7%
NC(=O)C(=Cn1cnc(-c2cc(C(F)(F)F)cc(C(F)(F)F)c2)n1)c1cncnc1 + Cc1c(S(C)(=O)=O)c(-c2cc(F)cc(N3CCN(c4ccc(NS(=O)(=O)c5ccc(NC(CCN6CCC(C(=O)OCCCP(=O)(O)O)CC6)CSc6ccccc6)c(S(=O)(=O)C(F)(F)F)c5)cc4)CC3)c2)c(-c2ccc(Cl)cc2)n1C(C)C,pIC50,second compound 0.1 µM,> 9.02
same,pIC50,second compound 0.316 µM,> 9.02
same,pIC50,second compound 1 µM,> 9.02
same,pIC50,second compound 3.16 µM,> 9.02
same,pIC50,second compound 10 µM,> 9.02
same,"viability, T/C","second compound 0.1 µM, first compound 0.000949 µM",47.5%
same,"viability, T/C","second compound 0.1 µM, first compound 0.003 µM",36.2%
same,"viability, T/C","second compound 0.1 µM, first compound 0.00949 µM",22.7%
same,"viability, T/C","second compound 0.1 µM, first compound 0.03 µM",6.11%
same,"viability, T/C","second compound 0.1 µM, first compound 0.0949 µM",16.4%
same,"viability, T/C","second compound 0.1 µM, first compound 0.3 µM",4.19%
same,"viability, T/C","second compound 0.316 µM, first compound 0.000949 µM",47%
same,"viability, T/C","second compound 0.316 µM, first compound 0.003 µM",31.2%
same,"viability, T/C","second compound 0.316 µM, first compound 0.00949 µM",12.9%
same,"viability, T/C","second compound 0.316 µM, first compound 0.03 µM",7.11%
same,"viability, T/C","second compound 0.316 µM, first compound 0.0949 µM",2.26%
same,"viability, T/C","second compound 0.316 µM, first compound 0.3 µM",1.84%
same,"viability, T/C","second compound 1 µM, first compound 0.000949 µM",34%
same,"viability, T/C","second compound 1 µM, first compound 0.003 µM",38.8%
same,"viability, T/C","second compound 1 µM, first compound 0.00949 µM",13.9%
same,"viability, T/C","second compound 1 µM, first compound 0.03 µM",7.14%
same,"viability, T/C","second compound 1 µM, first compound 0.0949 µM",3.61%
same,"viability, T/C","second compound 1 µM, first compound 0.3 µM",2.25%
same,"viability, T/C","second compound 3.16 µM, first compound 0.000949 µM",30.6%
same,"viability, T/C","second compound 3.16 µM, first compound 0.003 µM",25.2%
same,"viability, T/C","second compound 3.16 µM, first compound 0.00949 µM",14.1%
same,"viability, T/C","second compound 3.16 µM, first compound 0.03 µM",5.04%
same,"viability, T/C","second compound 3.16 µM, first compound 0.0949 µM",3%
same,"viability, T/C","second compound 3.16 µM, first compound 0.3 µM",4.14%
same,"viability, T/C","second compound 10 µM, first compound 0.000949 µM",24.6%
same,"viability, T/C","second compound 10 µM, first compound 0.003 µM",33.5%
same,"viability, T/C","second compound 10 µM, first compound 0.00949 µM",13.9%
same,"viability, T/C","second compound 10 µM, first compound 0.03 µM",3.72%
same,"viability, T/C","second compound 10 µM, first compound 0.0949 µM",1.94%
same,"viability, T/C","second compound 10 µM, first compound 0.3 µM",0.83%
NC1CCC(NC2CC2c2ccccc2)CC1 (stereo not given) + Cc1c(S(C)(=O)=O)c(-c2cc(F)cc(N3CCN(c4ccc(NS(=O)(=O)c5ccc(NC(CCN6CCC(C(=O)OCCCP(=O)(O)O)CC6)CSc6ccccc6)c(S(=O)(=O)C(F)(F)F)c5)cc4)CC3)c2)c(-c2ccc(Cl)cc2)n1C(C)C,pIC50,second compound 0.1 µM,> 9.50
same,pIC50,second compound 0.316 µM,> 9.50
same,pIC50,second compound 1 µM,> 9.50
same,pIC50,second compound 3.16 µM,> 9.50
same,pIC50,second compound 10 µM,> 9.50
same,"viability, T/C","second compound 0.1 µM, first compound 0.000316 µM",36.7%
same,"viability, T/C","second compound 0.1 µM, first compound 0.001 µM",31.1%
same,"viability, T/C",[1],37.3%
same,"viability, T/C",[2],37.3%
same,"viability, T/C",[3],33.7%
same,"viability, T/C",[4],37%
same,"viability, T/C","second compound 0.316 µM, first compound 0.000316 µM",39.7%
same,"viability, T/C","second compound 0.316 µM, first compound 0.001 µM",42.1%
same,"viability, T/C",[7],31.7%
same,"viability, T/C",[8],26.7%
same,"viability, T/C",[9],35.9%
same,"viability, T/C",[10],30.5%
same,"viability, T/C","second compound 1 µM, first compound 0.000316 µM",27.6%
same,"viability, T/C","second compound 1 µM, first compound 0.001 µM",19.3%
same,"viability, T/C",[13],31.9%
same,"viability, T/C",[14],31.5%
same,"viability, T/C",[15],31.1%
same,"viability, T/C",[16],39.5%
same,"viability, T/C","second compound 3.16 µM, first compound 0.000316 µM",25.2%
same,"viability, T/C","second compound 3.16 µM, first compound 0.001 µM",32.8%
same,"viability, T/C",[19],22.7%
same,"viability, T/C",[20],35.9%
same,"viability, T/C",[21],24.9%
same,"viability, T/C",[22],35.4%
same,"viability, T/C","second compound 10 µM, first compound 0.000316 µM",20.4%
same,"viability, T/C","second compound 10 µM, first compound 0.001 µM",20.4%
same,"viability, T/C",[25],21.2%
same,"viability, T/C",[26],20.6%
same,"viability, T/C",[27],24.5%
same,"viability, T/C",[28],27.6%
O=C(c1ccc(F)c(F)c1Nc1ccc(I)cc1F)N1CC(O)([C@@H]2CCCCN2)C1 + Cc1c(S(C)(=O)=O)c(-c2cc(F)cc(N3CCN(c4ccc(NS(=O)(=O)c5ccc(NC(CCN6CCC(C(=O)OCCCP(=O)(O)O)CC6)CSc6ccccc6)c(S(=O)(=O)C(F)(F)F)c5)cc4)CC3)c2)c(-c2ccc(Cl)cc2)n1C(C)C,pIC50,second compound 0.1 µM,7.67
same,pIC50,second compound 0.316 µM,> 8.50
same,pIC50,second compound 1 µM,> 8.50
same,pIC50,second compound 3.16 µM,> 8.50
same,pIC50,second compound 10 µM,> 8.50
same,"viability, T/C",[1],46.3%
same,"viability, T/C",[2],71.5%
same,"viability, T/C",[3],33.4%
same,"viability, T/C",[4],45.1%
same,"viability, T/C",[5],30.7%
same,"viability, T/C",[6],4.92%
same,"viability, T/C",[7],41.9%
same,"viability, T/C",[8],42%
same,"viability, T/C",[9],44.8%
same,"viability, T/C",[10],43.7%
same,"viability, T/C",[11],22%
same,"viability, T/C",[12],6.11%
same,"viability, T/C",[13],39.2%
same,"viability, T/C",[14],44.3%
same,"viability, T/C",[15],42.1%
same,"viability, T/C",[16],36.9%
same,"viability, T/C",[17],24.6%
same,"viability, T/C",[18],4.55%
same,"viability, T/C",[19],38.9%
same,"viability, T/C",[20],25%
same,"viability, T/C",[21],26.6%
same,"viability, T/C",[22],29.5%
same,"viability, T/C",[23],15.3%
same,"viability, T/C",[24],3.65%
same,"viability, T/C",[25],34.5%
same,"viability, T/C",[26],42%
same,"viability, T/C",[27],32.1%
same,"viability, T/C",[28],29.1%
same,"viability, T/C",[29],11.1%
same,"viability, T/C",[30],2.13%

# From PubChem BioAssay AID1963434 (Molecular Pharmacology Branch, DTP, NCI, 2024)
